Earlier results in US11759493B2, “Composition for the treatment of constipation” (NEILOS S.R.L., priority 2017, dated 2023).

Assays:
[1] = 20 and 40 g per day, both study groups
[2] = 10 g, versus placebo, healthy individuals
[3] = patients affected by constipation, meta-analysis

Compound | frequency, volume and weight of feces [1] | transit in the small intestine [2] | percentage of people involved in the studies affected by diarrhea (20 g of active ingredient) | diarrhea (dosage of 10 g per day) | evacuation frequency and feces consistency [3]
OC[C@H]1O[C@@H](O[C@@H]2[C@@H](CO)OC(O)(CO)[C@H]2O)[C@H](O)[C@@H](O)[C@H]1O (mixture of isomers) [lactulose] | significant increase | accelerating effect | – | – | –
OC[C@@H](O)[C@@H](O[C@@H]1O[C@H](CO)[C@H](O)[C@H](O)[C@H]1O)[C@H](O)[C@@H](O)CO [lactitol, 4-O-β-D-galactopyranosyl-D-glucitol] | – | – | 5-20% | absence of diarrhea | increase the evacuation frequency and the feces consistency
